According to patent US10258603B2 (priority 2014, dated 2019):

The molecules below were run against T1, CECR2 (Homo sapiens, UniProt Q9BXF3) (assay: CECR2 TR-FRET Binding Assay). Details: read-out: IC50.
T1 construct: 424-538 was cloned, expressed, and purified to homogeneity; Flag; made in house
Source text: IC50 Measurements for Inhibitors Using CECR2 TR-FRET Binding Assay

T1 sequence (Q9BXF3 424-538 limits assumed): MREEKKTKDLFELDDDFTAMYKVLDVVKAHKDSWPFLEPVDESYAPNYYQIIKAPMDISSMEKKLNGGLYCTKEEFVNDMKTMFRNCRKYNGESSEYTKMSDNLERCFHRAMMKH

IC50 [µM] | SMILES
0.074 | C=CCn1cc(C(=O)N2CCN(c3ccc(F)cc3)CC2C(N)=O)c2cc(C)[nH]c2c1=O (single isomer, unassigned) [Example 274, 1-(6-allyl-2-methyl-7-oxo-6,7-dihydro-1H-pyrrolo[2,3-c]pyridine-4-carbonyl)-4-(4-fluorophenyl)piperazine-2-carboxamide]
0.71 | CN(C(=O)c1cn(C)c(=O)c2[nH]ccc12)C1CCN(Cc2ccc(C#N)cc2)CC1 [Example 213, N-[1-[(4-cyanophenyl)methyl]-4-piperidyl]-N,6-dimethyl-7-oxo-1H-pyrrolo[2,3-c]pyridine-4-carboxamide]
1.2 | CN(C(=O)c1cn(C)c(=O)c2[nH]ccc12)C1CCN(Cc2ccccc2F)CC1 [Example 216]
1.1 | CC(C)N1CCCC(NC(=O)c2cn(C)c(=O)c3[nH]ccc23)CC1 (stereo not drawn) [Example 241]
3 | Cn1cc(C(=O)N2CCC(C(C)(C)O)CC2)c2cc[nH]c2c1=O [Example 68, 4-[4-(1-hydroxy-1-methyl-ethyl)piperidine-1-carbonyl]-6-methyl-1H-pyrrolo[2,3-c]pyridin-7-one]
5.9 | CN(C)C(=O)C1CCN(C(=O)c2cn(C)c(=O)c3[nH]ccc23)CC1 [Example 74, N,N-dimethyl-1-(6-methyl-7-oxo-1H-pyrrolo[2,3-c]pyridine-4-carbonyl)piperidine-4-carboxamide]
0.73 | CC(c1ccccc1)N1CCC(CN(C)C(=O)c2cn(C)c(=O)c3[nH]ccc23)CC1 (stereo not drawn) [Example 197]
0.67 | COc1ccc(CN2CCC(N(C)C(=O)c3cn(C)c(=O)c4[nH]ccc34)CC2)cc1 [Example 221]
0.035 | C=CCn1cc(C(=O)N(C)C2CCN(c3cc(-c4ncccc4C)ncn3)CC2)c2cc(C)[nH]c2c1=O [Example 272]
9.9 | CC1CN(C(=O)c2cn(C)c(=O)c3[nH]ccc23)CCC1N(C)C (stereo not drawn) [Example 78, 4-[4-(dimethylamino)-3-methyl-piperidine-1-carbonyl]-6-methyl-1H-pyrrolo[2,3-c]pyridin-7-one]
0.049 | C=CCn1cc(C(=O)N(C)C2CCC(C)(C)c3ccccc32)c2cc(C)[nH]c2c1=O (single isomer, unassigned) [Example 280]
0.34 | Cc1cnc(N2CCC(N(C)C(=O)c3cn(C)c(=O)c4[nH]ccc34)CC2)nc1 [Example 140, N,6-dimethyl-N-[1-(5-methylpyrimidin-2-yl)-4-piperidyl]-7-oxo-1H-pyrrolo[2,3-c]pyridine-4-carboxamide]
2 | CN1CCC(CN(C)C(=O)c2cn(C)c(=O)c3[nH]ccc23)CC1 [Example 188]
0.057 | C=CCn1cc(C(=O)N(C)C2CCOc3cc(F)ccc32)c2cc(C)[nH]c2c1=O (stereo not drawn) [Example 278]
0.78 | CN(C(=O)c1cn(C)c(=O)c2[nH]ccc12)C1CCN(Cc2cccc(Cl)c2)CC1 [Example 224]
0.31 | Cn1cc(C(=O)Nc2cccc(CN3CCOCC3)c2)c2cc[nH]c2c1=O [Example 113]
0.29 | CN(C(=O)c1cn(C)c(=O)c2[nH]ccc12)C1CCN(c2nccc(C(F)(F)F)n2)CC1 [Example 142, N,6-dimethyl-7-oxo-N-[1-[4-(trifluoromethyl)pyrimidin-2-yl]-4-piperidyl]-1H-pyrrolo[2,3-c]pyridine-4-carboxamide]
0.37 | CN(CC1CCN(CC2CCCCC2)CC1)C(=O)c1cn(C)c(=O)c2[nH]ccc12 [Example 206]
2.5 | Cn1cc(C(=O)N2CCC3(CC2)COC3)c2cc[nH]c2c1=O [Example 73, 6-methyl-4-(2-oxa-7-azaspiro[3.5]nonane-7-carbonyl)-1H-pyrrolo[2,3-c]pyridin-7-one]
0.51 | CN(C(=O)c1cn(C)c(=O)c2[nH]ccc12)C1CCN(c2ncc(F)cn2)CC1 [Example 147, N-[1-(5-fluoropyrimidin-2-yl)-4-piperidyl]-N,6-dimethyl-7-oxo-1H-pyrrolo[2,3-c]pyridine-4-carboxamide]
1.4 | CC(C)N1C2CCC1CC(N(C)C(=O)c1cn(C)c(=O)c3[nH]ccc13)C2 (stereo not drawn) [Example 242]
0.044 | C=CCn1cc(C(=O)N(C)C2CCCc3cnccc32)c2cc(C)[nH]c2c1=O (stereo not drawn) [Example 283, 6-allyl-N,2-dimethyl-7-oxo-N-(5,6,7,8-tetrahydroisoquinolin-5-yl)-1H-pyrrolo[2,3-c]pyridine-4-carboxamide]
5.1 | CCN(CC)C1CCN(C(=O)c2cn(C)c(=O)c3[nH]ccc23)CC1 [Example 79, 4-[4-(diethylamino)piperidine-1-carbonyl]-6-methyl-1H-pyrrolo[2,3-c]pyridin-7-one]
0.7 | CN(C(=O)c1cn(C)c(=O)c2[nH]ccc12)C1CCN(CCc2ccc(Cl)cc2)CC1 [Example 254]

IC50 [µM] | SMILES
4.8 | Cn1cc(C(=O)N2CCC(CO)CC2)c2cc[nH]c2c1=O [Example 75, 4-[4-(hydroxymethyl)piperidine-1-carbonyl]-6-methyl-1H-pyrrolo[2,3-c]pyridin-7-one]
0.12 | C=CCn1cc(C(=O)N(C)C2CCN(c3cc(C(C)C)ncn3)CC2)c2cc[nH]c2c1=O [Example 167, 6-allyl-N-[1-(6-isopropylpyrimidin-4-yl)-4-piperidyl]-N-methyl-7-oxo-1H-pyrrolo[2,3-c]pyridine-4-carboxamide]
0.74 | CCc1ccc(N2CCC(N(C)C(=O)c3cn(C)c(=O)c4[nH]ccc34)CC2)cc1 [Example 178, N-[1-(4-ethylphenyl)-4-piperidyl]-N,6-dimethyl-7-oxo-1H-pyrrolo[2,3-c]pyridine-4-carboxamide]
10.3 | CN(C)C1CCN(C(=O)c2cn(C)c(=O)c3[nH]ccc23)C1 (stereo not drawn) [Example 60, 4-[3-(dimethylamino)pyrrolidine-1-carbonyl]-6-methyl-1H-pyrrolo[2,3-c]pyridin-7-one]
0.14 | C=CCn1cc(C(=O)N(C)C2CCCc3ccncc32)c2cc(C)[nH]c2c1=O (single isomer, unassigned) [Example 291]
0.7 | CN(C(=O)c1cn(C)c(=O)c2[nH]ccc12)C1CCN(CCC2CC2)CC1 [Example 226]
0.11 | C=CCn1cc(C(=O)N(C)C2CCCc3ccccc32)c2cc(C)[nH]c2c1=O (stereo not drawn) [Example 275, 6-allyl-N,2-dimethyl-7-oxo-N-tetralin-1-yl-1H-pyrrolo[2,3-c]pyridine-4-carboxamide]
1.7 | CC(C)N1CCC(C)(CNC(=O)c2cn(C)c(=O)c3[nH]ccc23)CC1 [Example 212, N-[(1-isopropyl-4-methyl-4-piperidyl)methyl]-6-methyl-7-oxo-1H-pyrrolo[2,3-c]pyridine-4-carboxamide]
0.79 | CN(CC1CCN(CC2CCCC2)CC1)C(=O)c1cn(C)c(=O)c2[nH]ccc12 [Example 187, N-[[1-(cyclopentylmethyl)-4-piperidyl]methyl]-N,6-dimethyl-7-oxo-1H-pyrrolo[2,3-c]pyridine-4-carboxamide]
0.042 | C=CCn1cc(C(=O)N(C)C2CCN(c3cc(C)nc(C4CC4)n3)CC2)c2cc[nH]c2c1=O [Example 168, 6-allyl-N-[1-(2-cyclopropyl-6-methyl-pyrimidin-4-yl)-4-piperidyl]-N-methyl-7-oxo-1H-pyrrolo[2,3-c]pyridine-4-carboxamide]
1.1 | CN(C(=O)c1cn(C)c(=O)c2[nH]ccc12)C1CCN(Cc2cccc(C#N)c2)CC1 [Example 220]
1.4 | CN(CC1CCN(C2CC2)CC1)C(=O)c1cn(C)c(=O)c2[nH]ccc12 [Example 192]
1 | CN(CC1CCN(C2CCC2)CC1)C(=O)c1cn(C)c(=O)c2[nH]ccc12 [Example 189]
0.76 | CN(C(=O)c1cn(C)c(=O)c2[nH]ccc12)C1CCN(c2ccc(C(F)(F)F)cc2)CC1 [Example 175, N,6-dimethyl-7-oxo-N-[1-[4-(trifluoromethyl)phenyl]-4-piperidyl]-1H-pyrrolo[2,3-c]pyridine-4-carboxamide]
3.2 | CC1CCN(CCNC(=O)c2cn(C)c(=O)c3[nH]ccc23)CC1 [Example 26, 6-methyl-N-[2-(4-methyl-1-piperidyl)ethyl]-7-oxo-1H-pyrrolo[2,3-c]pyridine-4-carboxamide]
0.023 | C=CCn1cc(C(=O)N(C)C2CCN(c3cncc(-n4cccn4)n3)CC2)c2cc[nH]c2c1=O [Example 169, 6-allyl-N-methyl-7-oxo-N-[1-(6-pyrazol-1-ylpyrazin-2-yl)-4-piperidyl]-1H-pyrrolo[2,3-c]pyridine-4-carboxamide]
1.5 | CC1CCN(C2CCN(C(=O)c3cn(C)c(=O)c4[nH]ccc34)CC2)CC1 [Example 62, 6-methyl-4-[4-(4-methyl-1-piperidyl)piperidine-1-carbonyl]-1H-pyrrolo[2,3-c]pyridin-7-one]
0.73 | CN1CCC(CCN(C)C(=O)c2cn(C)c(=O)c3[nH]ccc23)CC1 [Example 181, N,6-dimethyl-N-[2-(1-methyl-4-piperidyl)ethyl]-7-oxo-1H-pyrrolo[2,3-c]pyridine-4-carboxamide]
0.91 | COCCN1CCC(CCN(C)C(=O)c2cn(C)c(=O)c3[nH]ccc23)CC1 [Example 185]
0.89 | CN(C)C1CCC(NC(=O)c2cn(C)c(=O)c3[nH]ccc23)CC1 (stereo not drawn) [Example 21, N-[4-(dimethylamino)cyclohexyl]-6-methyl-7-oxo-1H-pyrrolo[2,3-c]pyridine-4-carboxamide]
0.053 | C=CCn1cc(C(=O)N(C)C2CCCc3ccc(F)cc32)c2cc(C)[nH]c2c1=O (stereo not drawn) [Example 284]
0.93 | Cc1ccc(N2CCC(N(C)C(=O)c3cn(C)c(=O)c4[nH]ccc34)CC2)cc1 [Example 176, N,6-dimethyl-7-oxo-N-[1-(p-tolyl)-4-piperidyl]-1H-pyrrolo[2,3-c]pyridine-4-carboxamide]
0.59 | CN(C(=O)c1cn(C)c(=O)c2[nH]ccc12)C1CCN(c2cccc(C(F)(F)F)c2)CC1 [Example 174, N,6-dimethyl-7-oxo-N-[1-[3-(trifluoromethyl)phenyl]-4-piperidyl]-1H-pyrrolo[2,3-c]pyridine-4-carboxamide]
3.1 | Cn1cc(C(=O)NCCN2CCS(=O)(=O)CC2)c2cc[nH]c2c1=O [Example 37, N-[2-(1,1-dioxo-1,4-thiazinan-4-yl)ethyl]-6-methyl-7-oxo-1H-pyrrolo[2,3-c]pyridine-4-carboxamide]
